Activity calls are given as the source filed them. The rule behind the calls is not given here.
Tested on: M. tuberculosis H37Rv growth inhibition with meropenem
Test: dose response, H37Rv, with and without meropenem (AID 434987);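 note: growth over 7 days at 37 °C before Alamar Blue read on day 9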
[1] = M. tuberculosis H37Rv growth inhibition, measured here: IC50 without meropenem
[2] = M. tuberculosis H37Rv growth inhibition, measured here: IC90 without meropenem
[3] = measured here: IC90 with meropenem

Compound | IC50 | IC50 [1] [µM] | IC90 [2] [µM] | IC90 [3] [µM]
CCOC(=O)c1c(C)[nH]c(C)c1C(=O)COC(=O)/C=C/c1ccc(OC(F)F)cc1 | 61.1 µM (inactive) | 98.3 | > 100 | 91.4
Cc1ccccc1Cn1cc(NC(=O)CSc2nc3c(c(C(F)(F)F)n2)CCc2ccccc2-3)cn1 | 26.4 µM | > 100 | > 100 | > 100
Cc1cc(NC(=O)/C=C/c2ccccc2Cl)n(-c2nc3ccccc3[nH]2)n1 | 1.94 µM | > 100 | > 100 | > 100
CONC(=O)c1cc(OCC(F)(F)F)ccc1OCC(F)(F)F | > 100 µM (inactive) | > 100 | > 100 | > 100
S=C(Nc1ccccc1)Nc1ccc(Cl)cn1 | 4.68 µM | 90.6 | > 100 | > 100
O=C(O)CCC/C=C\C[C@@H]1[C@@H](/C=C/[C@@H](O)COc2cccc(Cl)c2)[C@H](O)C[C@@H]1O | > 100 µM (inactive) | > 100 | > 100 | > 100
c1ccc(CSc2nnc(-c3ccco3)o2)cc1 | > 100 µM (inactive) | > 100 | > 100 | > 100
Clc1ccc(/C=N/NC2=Nc3cccc4cccc2c34)cc1 | > 100 µM (inactive) | > 100 | > 100 | > 100
CCCc1cc(NC(=O)COC(=O)c2nccnc2N)n(-c2ccccc2)n1 | 49.3 µM (inactive) | 68.4 | > 100 | 50.8
COc1cc(NC(=S)NC(=O)c2ccco2)ccc1NC(=O)C(C)C | 99.6 µM (inactive) | > 100 | > 100 | > 100
CS(=O)(=O)N(Cc1ccccc1)c1ccc(C(=O)N2CCN(c3cccc(Cl)c3)CC2)cc1 | > 100 µM (inactive) | > 100 | > 100 | > 100
CC(=O)c1ccc(-n2c(C)ccc2-c2ccccc2)cc1 | 20.2 µM | 61.3 | 88.3 | > 100
COc1ccc(CN(CCC#N)C(=S)NC(=O)c2ccccc2)cc1 | 10.6 µM | 79.1 | > 100 | > 100
CN(C)c1ccc(/C=N/NC(=O)c2cc(-c3ccc4c(c3)OCO4)n[nH]2)cc1 | > 100 µM (inactive) | > 100 | > 100 | > 100
CC(=O)c1c(C)[nH]c(C(=O)OCC(=O)Nc2nnc(-c3ccccc3)o2)c1C | 4.19 µM | > 100 | > 100 | > 100
O=C(CCSc1nnc(-c2ccncc2)o1)Nc1ccccc1Cl | > 100 µM (inactive) | > 100 | > 100 | > 100
COc1ccc(C(=O)CN(C(=O)c2ccc(Cl)cc2)N2C(=O)c3ccccc3C2=O)cc1 | 5.66 µM | 34.9 | > 100 | 22.4
CC(C)CC(=O)N1CCN(c2ccc([N+](=O)[O-])c(NCc3ccccc3)c2)CC1 | 44.9 µM (inactive) | 46.7 | 51.5 | 48.6
Cn1c(/C=C/c2ccc(Cl)cc2)nc2ccccc2c1=O | 52.1 µM (inactive) | > 100 | > 100 | > 100
c1ccc(-c2cc(N3CCOCC3)nc3ccccc23)cc1 | 2.78 µM | > 100 | > 100 | 91.5

Compound | IC50 | IC50 [1] [µM] | IC90 [2] [µM] | IC90 [3] [µM]
COc1ccc(C2CC(c3c(-c4ccccc4)c4cc(Cl)ccc4[nH]c3=O)=NN2S(C)(=O)=O)cc1 (configuration not stated) | > 100 µM (inactive) | > 100 | > 100 | > 100
O=C(CCl)N(c1ccccc1)C1CCS(=O)(=O)C1 (configuration not stated) | 5.77 µM | 18.2 | 55.6 | 13.9
O=C(/C=C/c1cccnc1)c1ccc(O)cc1 | 19.8 µM (inactive) | 34.2 | 46.9 | 50.4
CC1CN(C(=S)NC(=O)c2cccc([N+](=O)[O-])c2)CC(C)O1 (configuration not stated) | 11.8 µM | 42.3 | > 100 | > 100
C#C[C@]1(O)CC[C@H]2[C@@H]3CCC4=C(CCC(=O)C4)[C@H]3CC[C@@]21C | > 100 µM (inactive) | > 100 | > 100 | > 100
CCOc1ccc2nc(SC3CC(=O)N(c4ccc(OC)cc4)C3=O)sc2c1 (configuration not stated) | > 100 µM (inactive) | > 100 | > 100 | > 100
O=C(CC12CC3CC(CC(C3)C1)C2)NCc1ccc(F)cc1 | 7.43 µM | > 100 | > 100 | 10.4
O=C(NCc1ccc2c(c1)OCO2)Nc1ccc2ccccc2c1 | 78.3 µM (inactive) | > 100 | > 100 | > 100
COc1ccccc1/C=C/C(=O)NCC(=O)N/N=C/c1cc(Br)ccc1OC | 24 µM | > 100 | > 100 | > 100
CCOC(=O)c1ccc(C(=O)NNC(=O)C2CC=CCC2)cc1 (configuration not stated) | 8.57 µM (inactive) | 20.9 | 31.9 | 40
O=C(COC(=O)C1=COCCO1)Nc1ccc2c(c1)OCO2 | 3.86 µM | 50 | > 100 | > 100
CCCn1c2ccccc2c2nnc(SCC(=O)OCC)nc21 | 27.7 µM (inactive) | 29.1 | > 50 | > 100
O=C(COc1ccccc1)Nc1cc(C(F)(F)F)ccc1N1CCCC1 | 46.6 µM (inactive) | > 100 | > 100 | > 100
C/C(=N\NC(=O)c1ccccc1O)c1ccc(Br)s1 | > 100 µM (inactive) | > 100 | > 100 | > 100
CCN(CC)c1ccc(NC(=O)c2cc(Cl)ccc2OC)cc1 | 24.2 µM | > 100 | > 100 | > 100
O=C(c1cc2c(s1)CCCC2)n1cccn1 | 93.4 µM (inactive) | > 100 | > 100 | > 100
CN1C(=O)/C(=C/c2ccc(C(=O)NC3CCCC3)cc2)Oc2ccccc21 | > 100 µM (inactive) | > 100 | > 100 | > 100
O=C(/C=C/c1ccccn1)c1cc(Br)ccc1O | 21.8 µM (inactive) | 37.4 | 58.6 | 45.1
CCc1nnc(NC(=O)c2ccc3nc(CC)c(CC)nc3c2)s1 | 46.6 µM (inactive) | > 100 | > 100 | > 100
Cc1ccc(CC(=O)Nc2nc3ccccc3[nH]2)cc1C | 6.31 µM | > 100 | > 100 | > 25

Compound | IC50 | IC50 [1] [µM] | IC90 [2] [µM] | IC90 [3] [µM]
CSc1nc2cc3c(cc2n1C(=O)c1ccc(C)cc1)OCCO3 | 5.15 µM | > 100 | > 100 | > 100
Cc1cccnc1NC(=O)c1c(O)c2cccc3c2n(c1=O)CCC3 | 94.4 µM (inactive) | > 100 | > 100 | > 100
CCOc1cccc(/C=N/Nc2nc(N3CCCC3)nc(N3CCCC3)n2)c1O | 90.8 µM (inactive) | > 100 | > 100 | > 100
CC(C(=O)Nc1sc2c(c1C(=O)NCc1ccco1)CCCC2)N1C(=O)c2ccccc2C1=O (configuration not stated) | 46.1 µM (inactive) | > 100 | > 100 | > 100
Cn1c(O)c(/C=C2/C=CC=N2)c(=O)[nH]c1=O | 18.3 µM | > 100 | > 100 | > 100
CN(C)S(=O)(=O)c1ccc(C(=O)/C=C/c2cccnc2)cc1 | 5.92 µM (inactive) | 9.41 | 13.9 | 12.1
COc1cc(NC(=O)c2ccccc2Cl)ccc1NC(=O)c1ccco1 | 19.6 µM (inactive) | 32.9 | > 50 | > 25
C=CCNC1=C(Cl)C(=O)N(c2cccc(Cl)c2Cl)C1=O | 13.9 µM | 46.5 | > 100 | 30.2
Cc1ccc(S(=O)(=O)NCCCCCC(=O)Nc2nccs2)cc1 | > 100 µM (inactive) | > 100 | > 100 | > 100
Cc1cc(C(=O)CN2C(=O)NC(c3ccccc3)(c3ccccc3)C2=O)c(C)n1Cc1ccccc1 | > 100 µM (inactive) | > 100 | > 100 | > 100
COc1ccc([N+](=O)[O-])cc1NS(=O)(=O)c1ccc(Cl)c(C(=O)Nc2sc3c(c2C#N)CCCCC3)c1 | > 100 µM (inactive) | > 100 | > 100 | > 100
Cc1nc2ccccc2c(=O)n1/N=C/c1c(O)ccc2oc3c(c12)CCCC3 | > 100 µM (inactive) | > 100 | > 100 | > 100
COc1ccccc1N(C)S(=O)(=O)c1ccc(C(=O)OCC(=O)N2CCCCCC2)cc1 | > 50 µM (inactive) | > 100 | > 100 | > 50
Cc1nc(Nc2ccc(Cl)cc2Cl)sc1C(=O)Nc1ccccc1 | > 100 µM (inactive) | > 100 | > 100 | > 100
CCn1cc(C(=O)O)c(=O)c2cc(F)c(N3CCN(C(=S)NC(=O)c4ccccc4C)CC3)cc21 | 10.9 µM (inactive) | 19.5 | 28.3 | 16
CCCCN=C1CC(C)(C)CC(=O)/C1=C(/O)CCC | 18.9 µM (inactive) | 42.1 | > 100 | 28.7
Cc1ccc(NC(=O)CCS(=O)(=O)c2cccc3nonc23)cc1 | 16.8 µM (inactive) | 31.1 | > 100 | > 100
COc1ccc(C(=O)Nc2ccccc2C(=O)NC(C(=O)NCc2ccco2)C(C)C)cc1 (configuration not stated) | > 100 µM (inactive) | > 100 | > 100 | > 100
